{"source": "patent US12054466B2", "about": "“Compounds for the treatment of clostridium difficile infection” (University of Notre Dame du Lac, priority 2016, dated 2024)", "assay_type_in_all_cases": "cell-based", "key": {"C. difficile ATCC43255": {"system": "C. difficile ATCC43255", "test": "MIC, broth microdilution", "conditions": "Clostridioides difficile, C. difficile ATCC43255"}, "C. difficile NR49310": {"system": "C. difficile NR49310", "test": "MIC, broth microdilution", "conditions": "Clostridioides difficile, C. difficile NR49310 (NAP7, ribotype 078)"}, "C. difficile BAA-1801": {"system": "C. difficile BAA-1801", "test": "MIC, broth microdilution", "conditions": "Clostridioides difficile, BAA1801, C. difficile BAA-1801 (nontoxigenic)"}, "C. difficile BAA-1803": {"system": "C. difficile BAA-1803", "test": "MIC, broth microdilution", "conditions": "Clostridioides difficile, BAA1803, C. difficile BAA-1803 (NAP1, ribotype 027)"}, "Eubacterium sp. HM-178": {"system": "Eubacterium sp. HM-178", "test": "MIC against common gut bacteria", "conditions": "SP.HM178"}, "Veillonella sp. HM-49": {"system": "Veillonella sp. HM-49", "test": "MIC against common gut bacteria"}, "[1]": {"system": "Bacteroides fragilis HM-709", "test": "MIC against common gut bacteria", "conditions": "HM709; Bacteroides fragilis HM-709; read-out: MIC"}, "[2]": {"system": "Lactobacillus reuteri HM-102", "test": "MIC against common gut bacteria"}, "C. difficile BAA-1804": {"system": "C. difficile BAA-1804", "test": "MIC, broth microdilution", "conditions": "Clostridioides difficile, BAA1804, C. difficile BAA-1804"}, "[3]": {"system": "Fusobacterium nucleatum HM-992", "test": "MIC against common gut bacteria", "conditions": "HM992; Fusobacterium nucleatum HM-992; read-out: MIC"}, "[4]": {"system": "Corynebacterium sp. HM-784", "test": "MIC against common gut bacteria", "conditions": "SP.HM784; Corynebacterium sp. HM-784; incubated aerobically; read-out: MIC", "method": "Minimally-inhibitory concentrations. MICs for C. difficile strains and the common gut bacteria were determined using broth microdilution techniques as reported earlier using brucella broth supplemented with hemin and vitamin K or supplemented BHIS broth (Babakhani et al., J Antimicrob Chemother 2013, 68(3), 515). Lactobacillus MRS broth was used for lactobacillus strains. […] All incubations unless specified otherwise were carried out at 24 or 48 h at 37° C. in an anaerobic chamber (Whitley DG250 workstation, Microbiology International, Frederick, MD). Corynebacterium and lactobacillus species were incubated aerobically."}, "Bacteroides ovatus": {"system": "Bacteroides ovatus", "test": "MIC against common gut bacteria", "conditions": "read-out: MIC"}, "[5]": {"system": "Lactobacillus gasseri HM-644", "test": "MIC against common gut bacteria"}, "Bacteroides fragilis": {"system": "Bacteroides fragilis", "test": "MIC against common gut bacteria", "conditions": "read-out: MIC"}, "C. difficile NR49302": {"system": "C. difficile NR49302", "test": "MIC, broth microdilution", "conditions": "Clostridioides difficile, C. difficile NR49302 (NAP4, ribotype 020)"}, "C. difficile NR49318": {"system": "C. difficile NR49318", "test": "MIC, broth microdilution", "conditions": "Clostridioides difficile, C. difficile NR49318 (NAP11, ribotype 106)"}, "C. difficile BAA-1812": {"system": "C. difficile BAA-1812", "test": "MIC, broth microdilution", "conditions": "Clostridioides difficile, BAA1812, C. difficile BAA-1812"}, "C. difficile NR49305": {"system": "C. difficile NR49305", "test": "MIC, broth microdilution", "conditions": "Clostridioides difficile, C. difficile NR49305 (NAP6, ribotype 002)"}, "Bacteroides caccae": {"system": "Bacteroides caccae", "test": "MIC against common gut bacteria", "conditions": "read-out: MIC"}, "C. difficile NR49292": {"system": "C. difficile NR49292", "test": "MIC, broth microdilution", "conditions": "Clostridioides difficile, C. difficile NR49292 (NAP2, ribotype 001_072)"}, "C. difficile NR49294": {"system": "C. difficile NR49294", "test": "MIC, broth microdilution", "conditions": "Clostridioides difficile, C. difficile NR49294 (NAP4, ribotype 014)"}, "C. difficile BAA-1870": {"system": "C. difficile BAA-1870", "test": "MIC, broth microdilution", "conditions": "Clostridioides difficile, BAA1870, C. difficile BAA-1870 (NAP1, ribotype 27)"}, "Bacteroides eggerthii": {"system": "Bacteroides eggerthii", "test": "MIC against common gut bacteria", "conditions": "read-out: MIC"}, "[6]": {"system": "Bifidobacterium longum HM-846", "test": "MIC against common gut bacteria", "conditions": "HM846; Bifidobacterium longum HM-846; read-out: MIC"}, "Bacteroides vulgatus": {"system": "Bacteroides vulgatus", "test": "MIC against common gut bacteria", "conditions": "Phocaeicola vulgatus; Bacteroides vulgatus; read-out: MIC"}, "C. difficile ATCC43598": {"system": "C. difficile ATCC43598", "test": "MIC, broth microdilution", "conditions": "Clostridioides difficile, C. difficile ATCC43598"}, "C. difficile BAA-1814": {"system": "C. difficile BAA-1814", "test": "MIC, broth microdilution", "conditions": "Clostridioides difficile, BAA1814, C. difficile BAA-1814"}}, "note": "Where two headings read alike, the source gives them in different places.", "data": [{"smiles": "Oc1ccc(-c2nc(-c3ccc(OC4CCCC4)cc3)no2)cc1", "note": "[Compound 2]", "values": [{"measurement": "MIC", "setting": "C. difficile ATCC43255; 24 h, read-out: MIC at 24 h", "result": 2, "unit": "µg/mL"}, {"measurement": "MIC", "setting": "C. difficile ATCC43255; 48 h, read-out: MIC at 48 h", "result": 2, "unit": "µg/mL"}, {"measurement": "MIC", "setting": "C. difficile NR49310; 24 h, read-out: MIC at 24 h", "result": 2, "unit": "µg/mL"}, {"measurement": "MIC", "setting": "C. difficile NR49310; 48 h, read-out: MIC at 48 h", "result": 4, "unit": "µg/mL"}, {"measurement": "MIC", "setting": "C. difficile BAA-1801; 24 h, read-out: MIC at 24 h", "result": 2, "unit": "µg/mL"}, {"measurement": "MIC", "setting": "C. difficile BAA-1801; 48 h, read-out: MIC at 48 h", "result": 2, "unit": "µg/mL"}, {"measurement": "MIC", "setting": "C. difficile BAA-1803; 24 h, read-out: MIC at 24 h", "result": 1, "unit": "µg/mL"}, {"measurement": "MIC", "setting": "C. difficile BAA-1803; 48 h, read-out: MIC at 48 h", "result": 2, "unit": "µg/mL"}, {"measurement": "MIC", "setting": "Eubacterium sp. HM-178", "result": 4, "unit": "µg/mL"}, {"measurement": "MIC", "setting": "Veillonella sp. HM-49; SP.HM49, Veillonella sp. HM-49, read-out: MIC", "result": "> 128", "unit": "µg/mL"}, {"measurement": "Activity against Veillonella sp.", "setting": "Veillonella sp. HM-49; in words", "result": "not active"}, {"measurement": "MIC", "setting": "[1]", "result": 1, "unit": "µg/mL"}, {"measurement": "MIC", "setting": "[2]; Limosilactobacillus reuteri, HM102, Lactobacillus reuteri HM-102, read-out: MIC", "result": "> 128", "unit": "µg/mL"}, {"measurement": "Activity against Lactobacillus reuteri", "setting": "[2]; in words", "result": "not active"}, {"measurement": "MIC", "setting": "C. difficile BAA-1804; 24 h, read-out: MIC at 24 h", "result": 2, "unit": "µg/mL"}, {"measurement": "MIC", "setting": "C. difficile BAA-1804; 48 h, read-out: MIC at 48 h", "result": 2, "unit": "µg/mL"}, {"measurement": "MIC", "setting": "[3]", "result": 2, "unit": "µg/mL"}, {"measurement": "MIC", "setting": "[4]", "result": 0.5, "unit": "µg/mL"}, {"measurement": "MIC", "setting": "Bacteroides ovatus", "result": 2, "unit": "µg/mL"}, {"measurement": "MIC", "setting": "[5]; HM644, Lactobacillus gasseri HM-644, read-out: MIC", "result": "> 128", "unit": "µg/mL"}, {"measurement": "Activity against Lactobacillus gasseri", "setting": "[5]; in words", "result": "not active"}, {"measurement": "MIC", "setting": "Bacteroides fragilis", "result": 2, "unit": "µg/mL"}, {"measurement": "MIC", "setting": "C. difficile NR49302; 24 h, read-out: MIC at 24 h", "result": 2, "unit": "µg/mL"}, {"measurement": "MIC", "setting": "C. difficile NR49302; 48 h, read-out: MIC at 48 h", "result": 2, "unit": "µg/mL"}, {"measurement": "MIC", "setting": "C. difficile NR49318; 24 h, read-out: MIC at 24 h", "result": 2, "unit": "µg/mL"}, {"measurement": "MIC", "setting": "C. difficile NR49318; 48 h, read-out: MIC at 48 h", "result": 4, "unit": "µg/mL"}, {"measurement": "MIC", "setting": "C. difficile BAA-1812; 24 h, read-out: MIC at 24 h", "result": 2, "unit": "µg/mL"}, {"measurement": "MIC", "setting": "C. difficile BAA-1812; 48 h, read-out: MIC at 48 h", "result": 2, "unit": "µg/mL"}, {"measurement": "MIC", "setting": "C. difficile NR49305; 24 h, read-out: MIC at 24 h", "result": 2, "unit": "µg/mL"}, {"measurement": "MIC", "setting": "C. difficile NR49305; 48 h, read-out: MIC at 48 h", "result": 2, "unit": "µg/mL"}, {"measurement": "MIC", "setting": "Bacteroides caccae", "result": 2, "unit": "µg/mL"}, {"measurement": "MIC", "setting": "C. difficile NR49292; 24 h, read-out: MIC at 24 h", "result": 1, "unit": "µg/mL"}, {"measurement": "MIC", "setting": "C. difficile NR49292; 48 h, read-out: MIC at 48 h", "result": 2, "unit": "µg/mL"}, {"measurement": "MIC", "setting": "C. difficile NR49294; 24 h, read-out: MIC at 24 h", "result": 1, "unit": "µg/mL"}, {"measurement": "MIC", "setting": "C. difficile NR49294; 48 h, read-out: MIC at 48 h", "result": 2, "unit": "µg/mL"}, {"measurement": "MIC", "setting": "C. difficile BAA-1870; 24 h, read-out: MIC at 24 h", "result": 2, "unit": "µg/mL"}, {"measurement": "MIC", "setting": "C. difficile BAA-1870; 48 h, read-out: MIC at 48 h", "result": 2, "unit": "µg/mL"}, {"measurement": "MIC", "setting": "Bacteroides eggerthii", "result": 1, "unit": "µg/mL"}, {"measurement": "MIC", "setting": "[6]", "result": 1, "unit": "µg/mL"}, {"measurement": "MIC", "setting": "Bacteroides vulgatus", "result": 2, "unit": "µg/mL"}, {"measurement": "MIC", "setting": "C. difficile ATCC43598; 24 h, read-out: MIC at 24 h", "result": 1, "unit": "µg/mL"}, {"measurement": "MIC", "setting": "C. difficile ATCC43598; 48 h, read-out: MIC at 48 h", "result": 2, "unit": "µg/mL"}, {"measurement": "MIC", "setting": "C. difficile BAA-1814; 24 h, read-out: MIC at 24 h", "result": 2, "unit": "µg/mL"}, {"measurement": "MIC", "setting": "C. difficile BAA-1814; 48 h, read-out: MIC at 48 h", "result": 2, "unit": "µg/mL"}]}]}
